Test results reported in ChEMBL document CHEMBL1201862, “PubChem BioAssay data set” (2004).
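Cultured in 96-well plates, cells were exposed to test compound for 48 hours across five concentrations. Abbreviation: GI50, concentration required for 50% inhibition of growth.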 Activity calls are given as the source filed them. No stated cut-off is given here; in the data, active = GI50 up to about 1.1 µM and inactive = higher.

Legend:
Assay in all cases: NCI tumour cell line growth inhibition, 48 h
DMS-273 = system: DMS-273
XF498 = system: XF498
M19-MEL = system: M19-MEL
DMS-114 = system: DMS-114
HOP-18 = system: HOP-18
RXF 631 = system: RXF 631
LXFL 529 = system: LXFL 529
DLD-1 = system: DLD-1
KM-20L2 = system: KM-20L2

Compound	GI50 (DMS-273)	GI50 (XF498)	GI50 (M19-MEL)	GI50 (DMS-114)	GI50 (HOP-18)	GI50 (RXF 631)	GI50 (LXFL 529)	GI50 (DLD-1)	GI50 (KM-20L2)
COc1ccc(/N=N/c2c(-c3ccccc3)nn(C(=O)CC(=O)Nc3ccc(OC)cc3)c2-c2ccccc2)cc1	> 100 µM (inactive)	27 µM (inactive)	> 100 µM (inactive)	60 µM (inactive)	84.3 µM (inactive)	59.3 µM (inactive)	60.5 µM (inactive)	> 100 µM (inactive)	–
COc1ccc2oc(C(=O)O)c3c2c1CCC3	> 100 µM (inactive)	> 100 µM (inactive)	> 100 µM (inactive)	> 100 µM (inactive)	> 100 µM (inactive)	–	> 100 µM (inactive)	> 100 µM (inactive)	> 100 µM (inactive)
O=P(NC12CC3CC(CC(C3)C1)C2)(N1CC1)N1CC1	6.07 µM (inactive)	–	> 100 µM (inactive)	50.9 µM (inactive)	> 100 µM (inactive)	–	64.4 µM (inactive)	80.5 µM (inactive)	> 100 µM (inactive)
O=c1[nH]c2cc([N+](=O)[O-])ccc2nc1/C(=N\NO)C(O)c1ccc([N+](=O)[O-])cc1 (stereo unspecified)	> 100 µM (inactive)	> 100 µM (inactive)	> 100 µM (inactive)	32.6 µM (inactive)	–	> 100 µM (inactive)	> 100 µM (inactive)	> 100 µM (inactive)	32.2 µM (inactive)
CC(C)(C)NNc1c([N+](=O)[O-])cnn(-c2ccccc2)c1=O	3.2 µM (inactive)	2.55 µM (inactive)	2.47 µM (inactive)	–	16.7 µM (inactive)	–	1.78 µM (inactive)	4.56 µM (inactive)	6.44 µM (inactive)
O=C1/C(=C/c2ccccc2)CNC/C1=C\c1ccccc1	0.721 µM (active)	2.32 µM (inactive)	1.02 µM (active)	2.11 µM (inactive)	11 µM (inactive)	2.91 µM (inactive)	1.49 µM (inactive)	0.329 µM (active)	1.39 µM (inactive)
C/C(=N\N)C(CN1CCOCC1)C(c1ccccc1)c1c(O)c2ccccc2oc1=O (stereo unspecified)	> 100 µM (inactive)	–	> 100 µM (inactive)	> 100 µM (inactive)	–	–	> 100 µM (inactive)	> 100 µM (inactive)	> 100 µM (inactive)
NC(=O)CCC(Nc1c2ccccc2[n+]([O-])c2ccccc12)C(=O)O (stereo unspecified)	65 µM (inactive)	–	77.3 µM (inactive)	37.1 µM (inactive)	16 µM (inactive)	–	31 µM (inactive)	27.8 µM (inactive)	> 100 µM (inactive)
C/C(=N\NS(=O)(=O)c1c(C)cc(C)cc1C)c1ccc[n+]([O-])n1	16.2 µM (inactive)	–	13.9 µM (inactive)	17.3 µM (inactive)	19.2 µM (inactive)	27.5 µM (inactive)	11.3 µM (inactive)	7.16 µM (inactive)	22.9 µM (inactive)
CC(Nc1ccc(S(=O)(=O)NC(=N)N)cc1)c1c2ccccc2nc2ccccc12 (stereo unspecified)	28.3 µM (inactive)	15.8 µM (inactive)	34.4 µM (inactive)	31.7 µM (inactive)	–	26 µM (inactive)	28.8 µM (inactive)	18.1 µM (inactive)	31.8 µM (inactive)
C/C=C/C=C\C(=O)C1c2cccc(O)c2C(=O)c2c(O)cc(C)cc21 (stereo unspecified)	1.65 µM (inactive)	0.232 µM (active)	0.828 µM (active)	0.383 µM (active)	1.88 µM (inactive)	–	–	1.9 µM (inactive)	1.98 µM (inactive)
O=C1c2ccccc2CC1C1(O)C(=O)Nc2ccccc21 (stereo unspecified)	> 100 µM (inactive)	55.6 µM (inactive)	> 100 µM (inactive)	> 100 µM (inactive)	–	> 100 µM (inactive)	> 100 µM (inactive)	> 100 µM (inactive)	> 100 µM (inactive)
COc1cc(/C=C2\Cc3ccccc3C2=O)cc(OC)c1OC	> 100 µM (inactive)	> 100 µM (inactive)	> 100 µM (inactive)	> 100 µM (inactive)	> 100 µM (inactive)	> 100 µM (inactive)	> 100 µM (inactive)	> 100 µM (inactive)	> 100 µM (inactive)
Cc1nc(-n2nc(-c3ccccc3)cc2-c2ccccc2)sc1C(=O)/C=C/c1ccc([N+](=O)[O-])cc1	20.8 µM (inactive)	–	20.3 µM (inactive)	–	> 100 µM (inactive)	23 µM (inactive)	–	15.3 µM (inactive)	33.7 µM (inactive)
CC(C)(C)[C@H]1CC[C@@](O)(c2ccccc2)CC1.CC(C)(C)[C@H]1CC[C@](O)(c2ccccc2)CC1	15.3 µM (inactive)	< 0.01 µM (active)	19.4 µM (inactive)	21.1 µM (inactive)	37.8 µM (inactive)	–	21.1 µM (inactive)	25.4 µM (inactive)	16.1 µM (inactive)
C1=Cc2nc1c(-c1ccccc1)c1ccc([n-]1)c(-c1ccccc1)c1nc(c(-c3ccccc3)c3ccc([n-]3)c2-c2ccccc2)C=C1.[Zn+2]	–	> 100 µM (inactive)	> 100 µM (inactive)	> 100 µM (inactive)	–	> 100 µM (inactive)	> 100 µM (inactive)	70.1 µM (inactive)	> 100 µM (inactive)
Cc1c(C(=O)CC(=O)C(=O)Nc2c(C(C)C)cccc2C(C)C)[n+]([O-])c2ccccc2[n+]1[O-]	3.4 µM (inactive)	3.05 µM (inactive)	1.99 µM (inactive)	2.59 µM (inactive)	–	3.3 µM (inactive)	11.1 µM (inactive)	–	4.55 µM (inactive)
NC(=O)OCC(COc1ccc(Cl)cc1)OC(=O)c1ccccc1Cl (stereo unspecified)	20.5 µM (inactive)	–	–	14.6 µM (inactive)	26.1 µM (inactive)	20.3 µM (inactive)	24.1 µM (inactive)	18.5 µM (inactive)	19.3 µM (inactive)
O=C(CC(=O)c1cccc([N+](=O)[O-])c1)C(=O)Nc1nc([N+](=O)[O-])cs1	> 100 µM (inactive)	–	> 100 µM (inactive)	> 100 µM (inactive)	> 100 µM (inactive)	> 100 µM (inactive)	60.1 µM (inactive)	> 100 µM (inactive)	> 100 µM (inactive)
O=C(O)CCSC(=O)Nc1ccccc1F	> 100 µM (inactive)	–	–	> 100 µM (inactive)	–	–	> 100 µM (inactive)	–	> 100 µM (inactive)
CC(C)(C)C1CCN(C(=O)c2ccccc2)CC1	> 100 µM (inactive)	< 0.01 µM (active)	> 100 µM (inactive)	28.8 µM (inactive)	84.1 µM (inactive)	–	70 µM (inactive)	> 100 µM (inactive)	> 100 µM (inactive)
[O-][S+]1Nc2c(Cl)cc(Cl)c(Cl)c2S1 (stereo unspecified)	> 100 µM (inactive)	–	> 100 µM (inactive)	76.2 µM (inactive)	> 100 µM (inactive)	–	> 100 µM (inactive)	95.7 µM (inactive)	> 100 µM (inactive)
Cc1ccc2oc(=O)cc(CC(=O)O)c2c1	> 100 µM (inactive)	24.5 µM (inactive)	> 100 µM (inactive)	–	> 100 µM (inactive)	> 100 µM (inactive)	> 100 µM (inactive)	> 100 µM (inactive)	> 100 µM (inactive)
CCCCCCCCC1C(C)c2c([nH]c3ccccc23)C2C(=O)N(c3ccccc3)C(=O)C21 (stereo unspecified)	9.75 µM (inactive)	–	15.7 µM (inactive)	10.6 µM (inactive)	–	3.41 µM (inactive)	16.5 µM (inactive)	18.9 µM (inactive)	11.2 µM (inactive)
O=C1NC(=O)C(=O)C(c2nc3ccccc3s2)C1=O	> 100 µM (inactive)	> 100 µM (inactive)	> 100 µM (inactive)	> 100 µM (inactive)	> 100 µM (inactive)	–	> 100 µM (inactive)	> 100 µM (inactive)	> 100 µM (inactive)
O=S(=O)(O)c1cc(S(=O)(=O)O)c2cc(/N=N/c3ccc(/N=N/c4ccc(/C=C/c5ccc(/N=[N+](/[O-])c6ccc(/C=C/c7ccc(/N=N/c8ccc(/N=N/c9ccc%10cc(S(=O)(=O)O)cc(S(=O)(=O)O)c%10c9)cc8)cc7S(=O)(=O)O)c(S(=O)(=O)O)c6)cc5S(=O)(=O)O)c(S(=O)(=O)O)c4)cc3)ccc2c1	> 55.6 µM (inactive)	45.2 µM (inactive)	> 25 µM (inactive)	> 57.4 µM (inactive)	–	–	–	> 81.3 µM (inactive)	58.9 µM (inactive)
